Experimental data taken from patent publication US20210181215A1, “TREATMENT AND DIAGNOSIS OF ANAEMIA” (THE UNIVERSITY COURT OF THE UNIVERSITY OF ABERDEEN, priority 2017, published 2021).
Entries after “also recorded” stand apart in the source; their conditions may differ.

Tests used:
[1] = system: untreated RBC uptake by HMDM; assay: Efferocytosis assay: uptake of untreated RBC by HMDM; format: cell-based, human; conditions: 3 h assay
Experimental: (§1) For clear identification of efferocytosis by microscopy, RBC were stained with cell trace far red (CTFR; Molecular Probes) according to manufacturer's instructions. RBC were added to HMDM at 5×10^7 cells per well for three hours before gentle removal and fixation with 4% paraformaldehyde. To identify cells bound but not and ingested by HMDM the cells were stained with anti-glycophorin A/B FITC (HIR2, Biolegend).
(§2) Mannan (10 mg/ml), chitin (50 μg/ml) and laminarin (10 μg/ml; all Sigma Aldrich) were applied for 60 minutes prior to three hour efferocytosis/phagocytosis assay and were not removed.
(§3) Cells were imaged at 32 times magnification using Immuno-Fluorescent Microscope (Zeiss).

[2] = system: oxidised RBC uptake by HMDM; assay: Efferocytosis assay: uptake of oxidised RBC by human monocyte derived macrophages; format: cell-based; conditions: RBC oxidised with CuSO4/ascorbic acid, 3 h assay, mannan 10 mg/ml, chitin 50 μg/ml, laminarin 10 μg/ml, anti-CD206 clone 15.2 10 μg/ml applied 60 min before, siRNA against MRC-1
Experimental: RBC and SHSy5y neuronal cells were incubated with copper sulphate (CuSO4, 0.2 mM) and ascorbic acid (5 mM) for 60 minutes (RBC) or 30 minutes (SHSy5y) at 37° C. in DMEM with 4.5 g/L glucose. Cells were then washed in PBS three times prior to assays.
as §1
(§4) Ligand binding of CD206 was blocked with antibody clone 15.2 (10 μg/ml; BioLegend) by adding antibody or isotype control (10 μg/ml mouse IgG1 kappa clone 107.3, BD Biosciences) for 60 minutes prior to three hour efferocytosis assay and were not removed.
as §2, §3
To access percentage MR positive spindle/small round macrophages, anti-MR antibody (unlabelled clone 19.2) was stained with anti-mouse PE secondary antibody. Only spindle/small round macrophage population was examined as this is the subpopulation that expresses MR in wild type macrophages. SiRNA ([…], antisense, concentration Life Technologies) against mannose receptor (MRC-1) in humans was transfected into primary macrophages (RNAiMax, Life Technologies). (n=4 donors for all SiRNA experiments. Autologous red blood cells were used with macrophages.) Mannose receptor expression was established by microscopy using MR-Alexa-488 staining (described above) in the small non-granular macrophage sub-population by merging bright field and mannose receptor fluorescence staining.

[3] = target: T1, Galanthus nivalis lectin (GNA) (Galanthus nivalis, UniProt P30617); assay: Flow cytometry blockade of GNA lectin binding to the RBC surface; conditions: oxidised / SCD RBC; lectin pre-incubated with mannan 5 mg/ml for 15 min
T1 construct: purchased Vector Laboratories B1245
T1 sequence (P30617 24-128 limits assumed): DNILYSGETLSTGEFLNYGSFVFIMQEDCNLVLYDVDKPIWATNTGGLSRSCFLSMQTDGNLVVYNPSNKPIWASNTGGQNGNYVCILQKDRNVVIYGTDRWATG
Experimental: RBC, approximately 5×10^6 per test, were washed three times in PBS, and then incubated in calcium buffer with biotinylated GNA (4 μg/ml, Vector Laboratories, B1245) or in PBS for PNA-FITC (2 μg/ml Sigma Aldrich L7381) for 30 minutes in calcium buffer at room temperature (protected from light). Cells were then washed and incubated with streptavidin PE-Cy7 (0.27 μg/ml; eBioscience) or PE (0.67 μg/ml; BD Pharmingen) for 30 min at room temperature. Cells were washed and analysed.
(§5) For blockade testing, Lectin or FC fusion were pre-incubated with mannan (5 mg/ml, unless otherwise stated) for 15 minutes at room temperature. Mixture of mannan and Lectin or FC fusion was then incubated with washed RBC and compared to binding of Lectin or FC fusion without mannan.
(§6) Samples were acquired on FACSCalibur (BD) and analysed using FlowJo v10.0 (Treestar) software. The normalised geomean was calculated by subtracting the geomean of the secondary only paired controls. For PNA-FITC analysis, normalised geomean was calculated by subtracting geomean of unstained RBC (PBS incubation) control.

[4] = system: uptake of RBC from patients with SCD (HbSS) by HMDM; assay: Efferocytosis assay: uptake of RBC from patients with SCD by HMDM; format: cell-based, human; conditions: 3 h assay, mannan 10 mg/ml, chitin 50 μg/ml, anti-CD206 10 μg/ml
Experimental: as §1, §4, §2, §3

[5] = system: carbohydrate binding domain of the mannose receptor CD206 (MR-CRD); assay: Flow cytometry blockade of MR-CRD (CD206 carbohydrate binding domain, Fc fusion) staining of oxidised RBC; set-up: species or system murine; conditions: FC fusion pre-incubated with mannan 5 mg/ml
Sequence of carbohydrate binding domain of the mannose receptor CD206 (MR-CRD) (Q61830 645-781 limits assumed): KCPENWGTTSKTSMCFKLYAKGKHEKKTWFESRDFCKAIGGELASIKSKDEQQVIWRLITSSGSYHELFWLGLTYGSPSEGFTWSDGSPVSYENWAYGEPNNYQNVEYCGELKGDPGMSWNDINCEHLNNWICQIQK
Experimental: Humanised FC fusions of murine C-type lectins (5 μg/ml, kind gift from Gordon Brown, Screening for Ligands of C-Type Lectin-Like Receptors, Elwira PyżGordon D. Brown, 2011) were incubated with RBC for 30 minutes at room temperature in calcium buffer then detected by Alexa Fluor 647 goat anti-human secondary antibody (2 μg/ml, 109-605-098, Jackson ImmunoResearch Laboratories) incubated for 30 minutes at room temperature.
as §5, §6

[6] = system: phagocytosis of beads by HMDM; assay: Bead phagocytosis assay with HMDM (control); format: cell-based, human; conditions: 3 h
Experimental: Coumarin stained Fluoresbrite microparticles (8 μm; Polysciences, Inc.) were added to HMDM at 5×107 beads per well for three hours before gentle removal and suspension in PBS for immediate imaging.
as §4, §2, §3

Substance	uptake of untreated RBC by HMDM [1]	uptake (efferocytosis) of oxidised RBC by HMDM [2]	blockade of GNA binding to RBC surface (FACS) [3]	uptake of RBC from patients with SCD by HMDM [4]	blockade of MR-CRD staining of oxidised RBC (FACS) [5]	phagocytosis of control beads by HMDM [6]	uptake (efferocytosis) of oxidised RBC by HMDM ([2]; listed as Mannan)
chitin	not untreated	significantly inhibited; also recorded: abrogated	inhibitable	significantly inhibited; also recorded: blocked			
laminarin		not laminarin, significantly inhibited					
mannan	not untreated	significantly inhibited; also recorded: abrogated	effective blockade; also recorded: inhibitable	significantly inhibited; also recorded: blocked	effective blockade	no effect	significantly blocked uptake
